Measurements taken from EP0347802B1, “Neurokinin A antagonists” (MERRELL DOW PHARMACEUTICALS INC., priority 1988, dated 1989).
Residues, ends and D or L forms follow the SMILES beside them.

Key:
[1] = molecular target: T1, NKA receptor (Mesocricetus auratus, UniProt P51144); assay: Neurokinin A-induced phosphatidylinositol (PI) turnover in hamster urinary bladder; assay type: cell-based; details: for shift of NKA dose-response curve (PI turnover): one experiment in triplicate; for partial agonist activity: test compound alone
T1 construct: from tissue; host or cells: hamster urinary bladder, chopped tissue
T1 sequence (P51144 1-384): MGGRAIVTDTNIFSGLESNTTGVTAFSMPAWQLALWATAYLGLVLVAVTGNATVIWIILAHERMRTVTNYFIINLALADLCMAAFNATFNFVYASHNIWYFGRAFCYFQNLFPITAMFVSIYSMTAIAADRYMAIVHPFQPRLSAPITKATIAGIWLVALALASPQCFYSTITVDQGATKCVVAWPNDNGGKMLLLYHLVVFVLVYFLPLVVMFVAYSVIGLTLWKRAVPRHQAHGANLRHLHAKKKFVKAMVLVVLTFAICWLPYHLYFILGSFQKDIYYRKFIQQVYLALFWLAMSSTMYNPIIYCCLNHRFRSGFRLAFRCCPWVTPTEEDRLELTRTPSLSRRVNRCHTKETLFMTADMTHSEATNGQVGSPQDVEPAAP
Source text: The abscissa (x-axis) logarithmically indicates the concentration in nanomoles of agonist or antagonist of the neurokinin A (NKA) receptor. […] The abscissa (x-axis) logarithmically indicates the concentration in nanomolar (nM) of agonist or antagonist of the NKA receptor. […] The abscissa (x-axis) logarithmically indicates the concentration in nanomolar (nM) of agonist or antagonist of the NKA receptor. […])]Leu-NH2 up to 100»M had only 5% partial agonist activity, and […] had only 12% partial agonist activity. […] Values are MEAN ± S.E.M. from one experiment in triplicate. Urinary bladders from several hamsters were pooled and chopped at 350 »m with a tissue chopper. The chopped tissue was then incubated in 37°C Krebs-Hepes buffer with fresh buffer changes every 15 minutes for 30 minutes. The tissue was then incubated in this buffer containing 100-200 »Ci of 3H-inositol at 37°C. The tissue was then washed and incubated for another 30 minutes in Krebs-Hepes (containing 10 mM Li+) at 37°C with fresh buffer change every 15 minutes. Portions of the tissue mass (approximately 10-20 mg per assay tube) were then placed in Li+ buffer, test compound was then added in 25 »l, and then various concentrations of neurokinin A were added in 25 »l in a final volume of 250 »l. […] Test compound was also evaluated alone at the indicated concentrations to test for agonist activity. After 30 minutes at room temperature, the phosphatidylinositol turnover was terminated by the addition of 940 »l chloroform:methanol (1:2), followed by 310 »l chloroform, followed by 310 »l water. Each tube was then vortexed for 15 seconds and then centrifuged at 3000 rpm for 10 minutes to separate the phases. 900 »l of the top (aqueous) phase was then loaded onto a 0.5 ml Biorad AG-1X8 (formate) ion exchange column. 50 »l of the bottom phase (chloroform) was withdrawn from each tube and placed in a counting vial, dried, and counted in scintillation fluid. The material on the columns was washed in order with: • 1) 10 ml of water • 2) 5 ml of 5 mM disodium tetraborate/60 mM sodium formate • 3) 10 ml of 1 M ammonium formate in 0.1 M formic acid The final (third) wash was collected and one ml was mixed with 6 ml of ACS scintillant and counted. The ratio of these counts (total inositol phosphates) to the corresponding organic phase counts was then calculated for each sample. The ratios in the presence of test compound and/or standards were then compared to the ratios for control tubes (i.e., no stimulating agonist). Dose-response curves were constructed and the abilities of test compounds to stimulate or to inhibit neurokinin A-induced phosphatidylinositol turnover were determined by graphical analysis or with the aid of a computer program and are illustrated in Figures 2 and 3.

[2] = tested on: hamster urinary bladder; assay: Hamster urinary bladder contraction preparation; set-up: species or system male golden Syrian hamsters; details: for effect on NKA-mediated contractile activity: NKA with 10 »M of test compound, one experiment in triplicate; for contraction produced by test compound alone: up to concentrations of 1 »M, three separate hamster bladder tissues each, thiorphan 10 »M
Source text: The abscissa (x-axis) logarithmically indicates the concentration in nanomoles of agonist or antagonist of the neurokinin A (NKA) receptor. The ordinate (y-axis) indicates the observed specific binding for each tested agonist or antagonist measured as a percentage of maximum specific binding. [formula] Agonists tested were NKA and fragments of NKA consisting of the third to tenth (NKA(3-10)) amino acids and the fourth to tenth (NKA(4-10)) amino acids. Values are MEAN ± S.E.M. of 6 - 12 experiments. […] The abscissa (x-axis) logarithmically indicates the concentration in nanomolar (nM) of agonist or antagonist of the NKA receptor. […] The abscissa (x-axis) logarithmically indicates the concentration in nanomolar (nM) of agonist or antagonist of the NKA receptor. […] H-Asp-Ser-Phe-Val-Gly-Leuψ[CH₂N(CH₃)]Leu-NH₂ up to 100»M had only 5% partial agonist activity, and H-Asp-Ser-Phe-Val-Gly-Leuψ[CH₂NH]Leu-NH₂ had only 12% partial agonist activity. […] The abscissa (x-axis) logarithmically indicates the concentration in nanomolar (nM) of NKA or NKA with 10 »M of H-Asp-Ser-Phe-Val-Gly-Leuψ[CH₂NH]Leu-NH₂. […] The abscissa (x-axis) logarithmically indicates the concentration in nanomolar (nM) of NKA or NKA with 10 »M of H-Asp-Ser-Phe-Val-Gly-Leuψ[CH₂N(CH₃)]Leu-NH₂. Values are MEAN ± S.E.M. from one experiment in triplicate.
Half-strips of urinary bladders from male golden Syrian hamsters (75 - 100 g) were suspended in Tyrode's buffer at 31°C and with 1 gram resting tension as described by Dion et al. (Life Sciences 41: 2269 - 2278, 1987). The enkephalinase inhibitor thiorphan was added to the buffer at 10 »M 15 minutes prior to each test compound addition. Cumulative NKA dose-response curves were constructed first in the absence and then in the presence of test compound. The test compounds were added cumulatively as well to ascertain whether or not they had any contractile effects themselves. Any test compound effect that was observed was allowed to plateau before the next cumulative concentration was added. Under these conditions, the EC₅₀ for NKA contractile effects was generally 10 nM, in good agreement with literature values. Contractile data are expressed as grams of tension developed over and above the resting tension. […] Figures 4 and 5 illustrate the contractile force as a function of NKA concentration in the absence and presence of test compound.

| partial agonist activity [1] | SMILES | shift of NKA dose-response curve (PI turnover) ([1]; 1, 10 and 100 »M test compound) | Kb ([1]; Schild plot of NKA dose-response shifts at 1, 10 and 100 »M, read-out: pA2 (converted)) | slope of the Schild plot ([1]; from NKA dose-response shifts at 1, 10 and 100 »M) | partial agonist activity ([1]; up to 100»M) | effect on NKA-mediated contractile activity [2] | contraction produced by test compound alone [2] | shift of NKA dose-response curve (PI turnover) ([1]; 10 »M test compound) |
| --- | --- | --- | --- | --- | --- | --- | --- | --- |
| – | CC(C)C[C@@H](CN(C)[C@@H](CC(C)C)C(N)=O)NC(=O)CNC(=O)[C@@H](NC(=O)[C@H](Cc1ccccc1)NC(=O)[C@H](CO)NC(=O)[C@@H](N)CC(=O)O)C(C)C [H-Asp-Ser-Phe-Val-Gly-Leuψ[CH₂N(CH₃)]Leu-NH₂] (HELM PEPTIDE1{D.S.F.V.G.[CC(C)C[C@@H](CN(C)[C@@H](CC(C)C)C(N)=O)N[*:1]]}$$$$V2.0) | significant rightward shift of NKA dose-response curve in competitive manner | 21.9 nM | -.99 | 5% | antagonistic effect | did not produce any contraction | – |
| 12% | CC(C)C[C@@H](CN[C@@H](CC(C)C)C(N)=O)NC(=O)CNC(=O)[C@@H](NC(=O)[C@H](Cc1ccccc1)NC(=O)[C@H](CO)NC(=O)[C@@H](N)CC(=O)O)C(C)C [H-Asp-Ser-Phe-Val-Gly-Leuψ[CH₂NH]Leu-NH₂] (HELM PEPTIDE1{D.S.F.V.G.[CC(C)C[C@@H](CN[C@@H](CC(C)C)C(N)=O)N[*:1]]}$$$$V2.0) | – | – | – | – | antagonistic effect | did not produce any contraction | significant rightward shift of NKA dose-response curve in competitive manner |
